Target: T1, Human Factor XIIa (Homo sapiens, UniProt P00748)
T1 construct: purchased Enzyme Research Laboratories
T1 sequence (P00748 373-615 limits assumed): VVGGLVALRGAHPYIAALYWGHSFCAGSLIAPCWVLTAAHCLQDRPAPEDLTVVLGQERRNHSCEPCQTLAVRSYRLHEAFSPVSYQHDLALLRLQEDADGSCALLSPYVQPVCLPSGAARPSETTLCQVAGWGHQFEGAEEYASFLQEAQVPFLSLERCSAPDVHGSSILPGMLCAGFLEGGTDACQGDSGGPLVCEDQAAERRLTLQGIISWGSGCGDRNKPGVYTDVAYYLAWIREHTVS
T1 sequence (P00748 20-372 partner limits assumed): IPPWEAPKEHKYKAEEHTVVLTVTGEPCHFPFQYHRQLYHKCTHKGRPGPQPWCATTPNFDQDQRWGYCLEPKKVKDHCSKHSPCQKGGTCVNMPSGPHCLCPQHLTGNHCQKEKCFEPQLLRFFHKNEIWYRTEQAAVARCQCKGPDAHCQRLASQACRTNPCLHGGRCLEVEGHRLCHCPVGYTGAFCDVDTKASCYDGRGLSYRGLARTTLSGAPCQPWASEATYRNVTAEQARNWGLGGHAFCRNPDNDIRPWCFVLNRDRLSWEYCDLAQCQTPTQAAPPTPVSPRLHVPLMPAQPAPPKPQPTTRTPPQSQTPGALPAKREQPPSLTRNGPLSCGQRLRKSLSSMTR
Experiment: Determination of Factor XIIa inhibitory activity in vitro (fluorogenic substrate H-DPro-Phe-Arg-AFC)
Assay type: biochemical
Conditions: Human Factor XIIa (Enzyme Research Laboratories), 25° C., read-out: Human FXIIa IC50
Protocol: Determination of the % Inhibition for FXIIa
Factor XIIa inhibitory activity in vitro was determined using standard published methods (see e.g. Shori et al., Biochem. Pharmacol., 1992, 43, 1209; Baeriswyl et al., ACS Chem. Biol., 2015, 10 (8) 1861; Bouckaert et al., European Journal of Medicinal Chemistry 110 (2016) 181). Human Factor XIIa (Enzyme Research Laboratories) was incubated at 25° C. with the fluorogenic substrate H-DPro-Phe-Arg-AFC and various concentrations of the test compound. Residual enzyme activity (initial rate of reaction) was determined by measuring the […] and the IC50 value for the test compound was determined.

Row | SMILES | IC50 [µM]
1 | Nc1nccc2cc(CNC(=O)c3cc(Cl)cnc3NC3CCCC3)ccc12 [Example 1.01] | 10 to 40
2 | Nc1nccc2cc(CNC(=O)c3cc(Cl)cnc3NCC3CCOCC3)ccc12 [Example 1.03] | 10 to 40
3 | Nc1nccc2cc(CNC(=O)c3cc(Cl)cnc3NCCN3CCCCC3)ccc12 [Example 1.10] | 1 to 3
4 | Nc1nccc2cc(CNC(=O)c3cc(Cl)cnc3NCCN3CCOCC3)ccc12 [Example 1.11] | 3 to 10
5 | CN1CCN(CCNc2ncc(Cl)cc2C(=O)NCc2ccc3c(N)nccc3c2)CC1 [Example 1.12] | 1 to 3
6 | CN1CCC(CNc2ncc(Cl)cc2C(=O)NCc2ccc3c(N)nccc3c2)CC1 [Example 1.13, N-[(1-Amino-6-isoquinolyl)methyl]-5-chloro-2-[(1-methyl-4-piperidyl)methylamino]pyridine-3-carboxamide] | 0.3 to 1
7 | Nc1nccc2cc(CNC(=O)c3cc(Cl)cnc3NCCN3CCS(=O)(=O)CC3)ccc12 [Example 1.17] | 3 to 10
8 | CC(=O)NCCNc1ncc(Cl)cc1C(=O)NCc1ccc2c(N)nccc2c1 [Example 1.19] | 3 to 10
9 | CC(=O)NCCCNc1ncc(Cl)cc1C(=O)NCc1ccc2c(N)nccc2c1 [Example 1.20] | 3 to 10
10 | CN1CCCc2cc(CNc3ncc(Cl)cc3C(=O)NCc3ccc4c(N)nccc4c3)ccc21 [Example 1.22] | 3 to 10
11 | CC(C)N(CCNc1ncc(Cl)cc1C(=O)NCc1ccc2c(N)nccc2c1)C(C)C [Example 1.25] | 0.3 to 1
12 | CC(C)N1CCN(CCCNc2ncc(Cl)cc2C(=O)NCc2ccc3c(N)nccc3c2)CC1 [Example 1.26] | 1 to 3
13 | Nc1nccc2cc(CNC(=O)c3cc(Cl)cnc3NCc3cccc(N4CCCCC4)c3)ccc12 [Example 1.27] | 10 to 40
14 | Nc1nccc2cc(CNC(=O)c3cc(Cl)cnc3NCC3CCN(c4ccncc4)CC3)ccc12 [Example 1.28] | 0.3 to 1
15 | Nc1nccc2cc(CNC(=O)c3cc(Cl)cnc3NCCN3CCCC3=O)ccc12 [Example 1.29] | 3 to 10
16 | Nc1nccc2cc(CNC(=O)c3cc(Cl)cnc3NCc3ccc(N4CCCCC4=O)cc3)ccc12 [Example 1.32] | 10 to 40
17 | Nc1nccc2cc(CNC(=O)c3cc(Cl)cnc3NCc3cccc(N4CCCC4=O)c3)ccc12 [Example 1.33] | 10 to 40
18 | Nc1nccc2cc(CNC(=O)c3cc(Cl)cnc3NCc3ccc(CN4CCCC4=O)cc3)ccc12 [Example 1.34] | 10 to 40
19 | CN1CCC(N(C)c2ncc(Cl)cc2C(=O)NCc2ccc3c(N)nccc3c2)CC1 [Example 1.35] | 10 to 40
20 | CN1CCN(CCCNc2ncc(Cl)cc2C(=O)NCc2ccc3c(N)nccc3c2)CC1 [Example 1.36] | 1 to 3
21 | CN1CCC(CNc2cccc(C(=O)NCc3ccc4c(N)nccc4c3)n2)CC1 [Example 4.26] | 1 to 3

Row | SMILES | IC50 [µM]
22 | CN1CCCN(c2ncc(C(=O)NCc3ccc4c(N)nccc4c3)cc2Cl)CC1 [Example 8.01] | 10 to 40
23 | COc1ccc(CN(C)c2ncc(C(=O)NCc3ccc4c(N)nccc4c3)cc2Cl)cc1 [Example 8.02] | 10 to 40
24 | CC(C)N1CCN(c2ncc(C(=O)NCc3ccc4c(N)nccc4c3)cc2Cl)CC1 [Example 8.03] | 10 to 40
25 | Nc1nccc2cc(CNC(=O)c3cnc(N4CC(O)C4)c(Cl)c3)ccc12 [Example 8.04] | 10 to 40
26 | CN(C)CCCOc1cccc(CN(C)c2ncc(C(=O)NCc3ccc4c(N)nccc4c3)cc2Cl)c1 [Example 8.05] | 10 to 40
27 | CN1CCC(N(C)c2ncc(C(=O)NCc3ccc4c(N)nccc4c3)cc2Cl)CC1 [Example 8.06, N-((1-aminoisoquinolin-6-yl)methyl)-5-chloro-6-(methyl(1-methylpiperidin-4-yl)amino)nicotinamide] | 1 to 3
28 | CN(c1ncc(C(=O)NCc2ccc3c(N)nccc3c2)cc1Cl)C1CCOCC1 [Example 8.07] | 3 to 10
29 | Nc1nccc2cc(CNC(=O)c3cnc(NC4CCCC4)c(Cl)c3)ccc12 [Example 11.01, N-((1-aminoisoquinolin-6-yl)methyl)-5-chloro-6-(cyclopentylamino)nicotinamide] | 10 to 40
30 | Nc1nccc2cc(CNC(=O)c3cnc(NCC4CCOCC4)c(Cl)c3)ccc12 [Example 11.03] | 3 to 10
31 | CN1CCN(c2ccccc2CNc2ncc(C(=O)NCc3ccc4c(N)nccc4c3)cc2Cl)CC1 [Example 11.08] | 10 to 40
32 | Nc1nccc2cc(CNC(=O)c3cnc(NCC4CCN(Cc5ccccc5)CC4)c(Cl)c3)ccc12 [Example 11.10] | 3 to 10
33 | COc1ccc(CNc2ncc(C(=O)NCc3ccc4c(N)nccc4c3)cc2Cl)cc1 [Example 11.11] | 10 to 40
34 | CS(=O)(=O)c1cccc(CNc2ncc(C(=O)NCc3ccc4c(N)nccc4c3)cc2Cl)c1 [Example 11.12] | 3 to 10
35 | Nc1nccc2cc(CNC(=O)c3cnc(NC4CCOCC4)c(Cl)c3)ccc12 [Example 11.13] | 10 to 40
36 | Nc1nccc2cc(CNC(=O)c3cnc(NCCN4CCCCC4)c(Cl)c3)ccc12 [Example 11.14] | 3 to 10
37 | CN1CCN(CCNc2ncc(C(=O)NCc3ccc4c(N)nccc4c3)cc2Cl)CC1 [Example 11.15] | 10 to 40
38 | CN1CCC(CNc2ncc(C(=O)NCc3ccc4c(N)nccc4c3)cc2Cl)CC1 [Example 11.16] | 3 to 10
39 | Nc1nccc2cc(CNC(=O)c3cnc(NCCn4ccnc4)c(Cl)c3)ccc12 [Example 11.17] | 10 to 40
40 | Nc1nccc2cc(CNC(=O)c3cnc(NCc4ccccn4)c(Cl)c3)ccc12 [Example 11.18] | 10 to 40
41 | Nc1nccc2cc(CNC(=O)c3cnc(NCc4cccnc4)c(Cl)c3)ccc12 [Example 11.19] | 10 to 40

More lines, now with the values ahead:

Row | IC50 [µM] | SMILES
42 | 10 to 40 | Nc1nccc2cc(CNC(=O)c3cc(Cl)cnc3NCc3ccccc3)ccc12 [Example 1.02]
43 | 10 to 40 | Nc1nccc2cc(CNC(=O)c3cc(Cl)cnc3Nc3ccccc3)ccc12 [Example 1.04]
44 | 10 to 40 | COc1ccc(CNc2ncc(Cl)cc2C(=O)NCc2ccc3c(N)nccc3c2)cc1 [Example 1.05]
45 | 3 to 10 | CS(=O)(=O)c1cccc(CNc2ncc(Cl)cc2C(=O)NCc2ccc3c(N)nccc3c2)c1 [Example 1.06]
46 | 10 to 40 | CN(C)c1cccc(CNc2ncc(Cl)cc2C(=O)NCc2ccc3c(N)nccc3c2)c1 [Example 1.07]
47 | 3 to 10 | COCCNc1ncc(Cl)cc1C(=O)NCc1ccc2c(N)nccc2c1 [Example 1.08]
48 | 1 to 3 | CN(C)CCNc1ncc(Cl)cc1C(=O)NCc1ccc2c(N)nccc2c1 [Example 1.09]
49 | 3 to 10 | Nc1nccc2cc(CNC(=O)c3cc(Cl)cnc3NCCOc3ccccc3)ccc12 [Example 1.14]
50 | 10 to 40 | Nc1nccc2cc(CNC(=O)c3cc(Cl)cnc3NCCCOc3ccccc3)ccc12 [Example 1.15]
51 | 3 to 10 | Nc1nccc2cc(CNC(=O)c3cc(Cl)cnc3NCCn3ccnc3)ccc12 [Example 1.16]
52 | 10 to 40 | CC(C)CCNc1ncc(Cl)cc1C(=O)NCc1ccc2c(N)nccc2c1 [Example 1.18]
53 | 10 to 40 | Nc1nccc2cc(CNC(=O)c3cc(Cl)cnc3NCc3ccc4c(c3)OCO4)ccc12 [Example 1.21]
54 | 3 to 10 | Nc1nccc2cc(CNC(=O)c3cc(Cl)cnc3NCc3ccncc3)ccc12 [Example 1.23]
55 | 3 to 10 | Nc1nccc2cc(CNC(=O)c3cc(Cl)cnc3NCc3cccnc3)ccc12 [Example 1.24]
56 | 3 to 10 | CN1CCN(c2ccccc2CNc2ncc(Cl)cc2C(=O)NCc2ccc3c(N)nccc3c2)CC1 [Example 1.30]
57 | 1 to 3 | Nc1nccc2cc(CNC(=O)c3cc(Cl)cnc3NCC3CCN(Cc4ccccc4)CC3)ccc12 [Example 1.31]
58 | 10 to 40 | COc1ccc(Nc2ncc(Cl)cc2C(=O)NCc2ccc3c(N)nccc3c2)cc1 [Example 1.37]
59 | 10 to 40 | COc1ccccc1Nc1ncc(Cl)cc1C(=O)NCc1ccc2c(N)nccc2c1 [Example 1.38]
60 | 10 to 40 | CN(C)c1ccc(Nc2ncc(Cl)cc2C(=O)NCc2ccc3c(N)nccc3c2)cc1 [Example 1.39]
61 | 10 to 40 | CN(C)c1cccc(Nc2ncc(Cl)cc2C(=O)NCc2ccc3c(N)nccc3c2)c1 [Example 1.40]
62 | 10 to 40 | CN(C)c1ccccc1Nc1ncc(Cl)cc1C(=O)NCc1ccc2c(N)nccc2c1 [Example 1.41]
63 | 10 to 40 | CS(=O)(=O)Nc1cccc(Nc2ncc(Cl)cc2C(=O)NCc2ccc3c(N)nccc3c2)c1 [Example 1.42]
64 | 3 to 10 | CN(C)c1ccc(CNc2ncc(C(=O)NCc3ccc4c(N)nccc4c3)cc2Cl)cc1 [Example 11.02]
65 | 10 to 40 | Nc1nccc2cc(CNC(=O)c3cnc(Nc4ccccc4)c(Cl)c3)ccc12 [Example 11.04]
66 | 1 to 3 | CN(C)CCCNc1ncc(Cl)cc1C(=O)NCc1ccc2c(N)nccc2c1 [Example 11.05]
67 | 3 to 10 | CN(C)CCOc1ccc(CNc2ncc(Cl)cc2C(=O)NCc2ccc3c(N)nccc3c2)cc1 [Example 11.06]
68 | 1 to 3 | CN(C)CCCOc1cccc(CNc2ncc(Cl)cc2C(=O)NCc2ccc3c(N)nccc3c2)c1 [Example 11.07]
